Data published in ChEMBL document CHEMBL1201862, “PubChem BioAssay data set” (2004).
Active and inactive are the calls of the source.

Columns and labels:
[1] = Dd2 parasite growth inhibition in erythrocytes – SYBR Green, dry powder samples, set 4, dose response (AID 1159572); format: functional, cell-based
[2] = Luminescence-based cell-based high throughput dose response assay to identify activators of the DAF-12 from the parasite S. stercoralis (ssDAF-12).; format: functional
[3] = target: Oxysterols receptor LXR-beta (Homo sapiens, UniProt P55055); assay: LXR agonists, Gal4 luciferase reporter, dose response, counter-screen for ssDAF-12 agonist project, cell-based, luminescence, HEK293, S. stercoralis campaign (AID 720737); format: functional; details: read-out: IC50 (the source's name)
[4] = target: Protein Tat (Human immunodeficiency virus type 1 group M subtype B (isolate HXB2)(HIV-1), UniProt P04608); format: functional;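 note: tat binding to TAR RNA read out by fluorescence polarization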
[5] = toxicity to human HepG2 hepatoma cells – cell-based, plate reader, dry powder samples, cytotoxicity control, dose response (AID 1159569); format: functional;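 note: inhibitor potency with signal falling toward the positive control level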
[6] = Dd2 malaria parasite growth inhibition potency – SYBR Green, dry powder samples, dose response (AID 1159566); format: functional, cell-based;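 note: potency for growth inhibition with lower SYBR green DNA signal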
[7] = P. falciparum Dd2 growth inhibitors, dose response, SYBR Green, cherry-picked samples (AID 1159567); format: functional, cell-based
[8] = growth inhibition of yeast DHODH-expressing 3D7 parasites – SYBR Green, dry powder samples, dose response (AID 1159570); format: functional, cell-based;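 note: parasite growth measured after 72 hours of compound exposure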
[9] = growth inhibition of PfATP4-mutant resistant parasites – NITD609-resistant line, SYBR Green, dry powder, dose response (AID 1159571); format: functional, cell-based;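 note: parasites synchronized at ring stage by sorbitol before testing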
[10] = rise of 4N DNA cells, HeLa – IC50, dose response (AID 1117351); format: functional, cell-based
[11] = rise of 2N DNA cells, HeLa – IC50, dose response (AID 1117349); format: functional, cell-based
[12] = cells; format: functional, cell-based; details: INS-1E
[13] = IC50 of insulin release inhibition, rat insulinoma INS-1E line, 5 mM glucose, cell-based (AID 1117331); format: functional
[14] = cytotoxicity toward HT-29 cells – cell-based, CellTiter-Glo luminescence, IC50, dose response (AID 1117330); format: functional
[15] = RKO cell viability reduction, dose response, CellTiter-Glo luminescence (AID 1117322); format: functional
[16] = cytotoxicity toward HCT116 cells – cell-based, CellTiter-Glo luminescence, IC50, dose response (AID 1117332); format: functional; details: HCT-116
[17] = SNU-C1 cell viability reduction, dose response, CellTiter-Glo luminescence (AID 1117323); format: functional, cell-based
[18] = cytotoxicity toward Colo320 cells – cell-based, CellTiter-Glo luminescence, IC50, dose response (AID 1117334); format: functional; details: COLO 320
[19] = Reduced DLD-1 viability, concentration-response, CellTiter-Glo luminescence (AID 1117352); format: functional
[20] = CellTiter-Glo luminescence survival assay, SW480 colon tumor line, concentration-response curve, half-maximal inhibitory concentration (AID 1117338); format: functional
[21] = Plasmodium falciparum Dd2 Sybr green parasite growth Measured in Cell-Based and Microorganism Combination System Using Plate Reader - 2153-01_Inhibitor_Dose_DryPowder_Activity_Set3.; format: functional
[22] = toxicity to human hepatoma HepG2 cells – cell-based, cherry-picked samples, cytotoxicity control, dose response (AID 1159577); format: functional
[23] = Dd2 parasite growth inhibition in erythrocytes – SYBR Green, dry powder samples, set 9, dose response (AID 1159568); format: functional, cell-based
[24] = target: T1, Corticotropin-releasing factor receptor 2/Corticotropin-releasing factor-binding protein (Homo sapiens, UniProt P24387+Q13324); assay: activators of CRF receptor 2 with binding protein – uHTS hits, confirmation (AID 602473); format: functional; details: read-out: EC50_Mean
T1 sequence (Q13324 whole entry): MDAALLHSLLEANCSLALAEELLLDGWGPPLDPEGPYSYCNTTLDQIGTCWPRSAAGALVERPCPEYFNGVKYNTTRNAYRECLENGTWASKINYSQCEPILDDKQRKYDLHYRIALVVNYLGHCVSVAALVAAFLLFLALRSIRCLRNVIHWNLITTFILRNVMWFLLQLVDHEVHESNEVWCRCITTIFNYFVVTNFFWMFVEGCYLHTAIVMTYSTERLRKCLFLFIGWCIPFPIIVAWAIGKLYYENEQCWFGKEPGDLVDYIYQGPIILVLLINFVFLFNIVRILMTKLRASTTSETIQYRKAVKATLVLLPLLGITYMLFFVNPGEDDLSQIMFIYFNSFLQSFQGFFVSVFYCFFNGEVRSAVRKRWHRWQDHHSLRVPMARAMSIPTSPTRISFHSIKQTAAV
T1 sequence (P24387 whole entry): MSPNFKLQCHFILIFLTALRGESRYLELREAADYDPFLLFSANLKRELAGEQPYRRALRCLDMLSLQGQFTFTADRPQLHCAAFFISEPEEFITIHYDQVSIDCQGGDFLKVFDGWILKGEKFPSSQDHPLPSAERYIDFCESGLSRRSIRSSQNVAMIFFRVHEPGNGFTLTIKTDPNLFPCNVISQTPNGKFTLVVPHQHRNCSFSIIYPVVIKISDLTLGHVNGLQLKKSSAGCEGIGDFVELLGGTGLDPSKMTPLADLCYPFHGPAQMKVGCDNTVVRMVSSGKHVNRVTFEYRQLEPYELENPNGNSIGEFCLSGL

[25] = viability loss in THP-1 monocytes – THP-1 cells, cytotoxicity control for Vif-APOBEC3G degradation inhibitor project, dose response (AID 1117359); format: functional; details: THP-1
[26] = target: T1, Corticotropin-releasing factor receptor 2/Corticotropin-releasing factor-binding protein; assay: Dose Response confirmation of uHTS hits for small molecule antagonists of the CRF-binding protein and CRF-R2 receptor complex.; format: functional; details: read-out: IC50_Mean
[27] = viability loss in HeLa cells – cytotoxicity control for MgcRacGAP inhibitor project, dose response (AID 624300); format: functional
[28] = target: Nonstructural protein 1 (Influenza A virus, UniProt Q194T2); format: functional, Influenza A virus (A/California/07/2009(H1N1))
[29] = target: Glutathione-S-transferase (Schistosoma japonicum, UniProt Q26513); assay: GST-antibody interaction or FRET quenching – biochemical, TR-FRET, artefact control for Vif-APOBEC3G degradation inhibitor project, dose response (AID 1117362); format: functional
[30] = target: T2, Rac GTPase-activating protein 1 (Homo sapiens, UniProt Q9H0H5); assay: blockers of MgcRacGAP-driven Rac1 GTP hydrolysis – biochemical, ADP Hunter fluorescence, primary and confirmatory, confirmation (AID 624330); format: functional
T2 sequence (Q9H0H5 whole entry): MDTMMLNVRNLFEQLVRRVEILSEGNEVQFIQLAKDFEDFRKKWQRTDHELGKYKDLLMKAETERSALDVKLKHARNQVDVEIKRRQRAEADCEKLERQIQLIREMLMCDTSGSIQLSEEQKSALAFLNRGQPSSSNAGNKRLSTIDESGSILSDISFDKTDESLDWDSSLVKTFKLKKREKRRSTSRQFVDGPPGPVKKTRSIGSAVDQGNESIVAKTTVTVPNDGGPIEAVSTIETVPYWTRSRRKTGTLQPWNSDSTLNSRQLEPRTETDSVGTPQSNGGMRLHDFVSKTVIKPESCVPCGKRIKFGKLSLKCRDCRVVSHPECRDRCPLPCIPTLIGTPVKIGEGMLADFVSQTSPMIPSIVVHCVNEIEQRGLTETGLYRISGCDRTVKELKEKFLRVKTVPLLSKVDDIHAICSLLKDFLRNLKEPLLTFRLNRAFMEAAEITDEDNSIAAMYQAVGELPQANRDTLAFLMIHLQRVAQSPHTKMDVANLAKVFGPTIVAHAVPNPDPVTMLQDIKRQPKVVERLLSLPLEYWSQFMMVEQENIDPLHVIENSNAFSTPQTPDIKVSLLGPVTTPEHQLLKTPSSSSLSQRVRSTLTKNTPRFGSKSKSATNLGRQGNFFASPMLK

[31] = target: T3, Histone-lysine N-methyltransferase NSD2 (Homo sapiens, UniProt O96028); format: biochemical
T3 sequence (O96028 whole entry): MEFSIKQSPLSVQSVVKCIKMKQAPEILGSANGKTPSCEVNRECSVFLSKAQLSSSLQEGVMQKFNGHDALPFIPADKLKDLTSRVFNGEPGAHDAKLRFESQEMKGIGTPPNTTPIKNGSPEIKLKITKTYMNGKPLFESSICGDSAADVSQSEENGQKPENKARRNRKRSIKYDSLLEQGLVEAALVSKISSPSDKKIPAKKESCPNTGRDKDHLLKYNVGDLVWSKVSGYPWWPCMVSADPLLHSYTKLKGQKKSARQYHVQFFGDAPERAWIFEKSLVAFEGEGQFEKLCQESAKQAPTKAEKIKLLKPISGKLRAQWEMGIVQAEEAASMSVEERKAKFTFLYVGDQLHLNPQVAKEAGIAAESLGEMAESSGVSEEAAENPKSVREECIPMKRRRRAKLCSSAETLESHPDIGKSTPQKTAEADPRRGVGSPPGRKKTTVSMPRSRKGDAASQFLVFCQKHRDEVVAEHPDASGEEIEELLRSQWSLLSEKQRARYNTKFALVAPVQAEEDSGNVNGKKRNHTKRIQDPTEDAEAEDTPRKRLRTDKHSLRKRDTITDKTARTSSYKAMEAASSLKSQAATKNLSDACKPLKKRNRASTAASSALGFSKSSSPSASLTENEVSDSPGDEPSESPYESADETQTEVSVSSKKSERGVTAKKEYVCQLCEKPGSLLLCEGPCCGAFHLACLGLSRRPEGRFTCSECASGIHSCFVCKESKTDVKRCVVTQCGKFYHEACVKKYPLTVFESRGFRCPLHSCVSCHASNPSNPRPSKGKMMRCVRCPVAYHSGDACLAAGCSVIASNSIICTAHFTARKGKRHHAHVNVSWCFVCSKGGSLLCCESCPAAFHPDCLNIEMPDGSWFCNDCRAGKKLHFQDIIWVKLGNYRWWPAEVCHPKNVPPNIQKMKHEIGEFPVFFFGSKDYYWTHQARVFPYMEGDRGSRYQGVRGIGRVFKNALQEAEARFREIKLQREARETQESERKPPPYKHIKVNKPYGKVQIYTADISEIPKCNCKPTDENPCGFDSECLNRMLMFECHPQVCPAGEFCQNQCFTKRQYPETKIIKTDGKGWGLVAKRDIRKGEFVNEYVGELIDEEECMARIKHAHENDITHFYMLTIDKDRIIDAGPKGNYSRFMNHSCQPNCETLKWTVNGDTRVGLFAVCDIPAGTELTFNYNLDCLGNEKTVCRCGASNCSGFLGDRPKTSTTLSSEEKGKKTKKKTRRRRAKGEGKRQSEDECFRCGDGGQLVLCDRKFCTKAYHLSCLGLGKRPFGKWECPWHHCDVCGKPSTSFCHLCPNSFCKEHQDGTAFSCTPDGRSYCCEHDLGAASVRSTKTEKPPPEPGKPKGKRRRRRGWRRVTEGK

[32] = target: T4, COUP transcription factor 2 (Homo sapiens, UniProt P24468); assay: Luminescence-based cell-based high throughput dose response assay to identify inhibitors of COUP-TFII (NR2F2).; format: functional;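 note: HEK293 cells transiently cotransfected with COUP-TFII expression vector and reporter; luciferase reporter luminescence driven by COUP-TFII from the pX2-168 reporter plasmid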
T4 sequence (P24468 whole entry): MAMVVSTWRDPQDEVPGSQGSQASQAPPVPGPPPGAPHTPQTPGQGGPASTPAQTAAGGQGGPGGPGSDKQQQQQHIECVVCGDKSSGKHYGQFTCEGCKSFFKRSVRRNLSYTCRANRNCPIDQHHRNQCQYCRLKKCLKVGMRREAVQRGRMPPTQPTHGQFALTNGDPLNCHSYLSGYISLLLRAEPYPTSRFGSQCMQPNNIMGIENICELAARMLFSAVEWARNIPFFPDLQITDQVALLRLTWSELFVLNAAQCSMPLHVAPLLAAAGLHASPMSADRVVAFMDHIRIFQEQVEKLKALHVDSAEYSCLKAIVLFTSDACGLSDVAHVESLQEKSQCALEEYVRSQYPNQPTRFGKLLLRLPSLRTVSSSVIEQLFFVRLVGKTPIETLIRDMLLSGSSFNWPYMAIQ

Nonstructural protein 1, sequence (Q194T2 whole entry): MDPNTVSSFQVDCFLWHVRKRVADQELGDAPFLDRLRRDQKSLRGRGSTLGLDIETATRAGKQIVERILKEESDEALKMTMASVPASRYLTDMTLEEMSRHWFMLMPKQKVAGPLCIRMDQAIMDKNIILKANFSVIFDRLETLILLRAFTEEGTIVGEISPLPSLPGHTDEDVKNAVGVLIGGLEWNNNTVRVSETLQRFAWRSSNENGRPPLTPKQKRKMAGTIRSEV
Glutathione-S-transferase, sequence (Q26513 whole entry): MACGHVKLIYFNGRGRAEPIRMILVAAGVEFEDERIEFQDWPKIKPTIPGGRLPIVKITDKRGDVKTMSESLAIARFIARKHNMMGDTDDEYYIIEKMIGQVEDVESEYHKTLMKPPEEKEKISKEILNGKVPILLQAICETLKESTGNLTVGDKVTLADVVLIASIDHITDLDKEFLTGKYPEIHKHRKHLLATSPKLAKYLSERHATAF
Oxysterols receptor LXR-beta, sequence (P55055 whole entry, the tested form may be a part): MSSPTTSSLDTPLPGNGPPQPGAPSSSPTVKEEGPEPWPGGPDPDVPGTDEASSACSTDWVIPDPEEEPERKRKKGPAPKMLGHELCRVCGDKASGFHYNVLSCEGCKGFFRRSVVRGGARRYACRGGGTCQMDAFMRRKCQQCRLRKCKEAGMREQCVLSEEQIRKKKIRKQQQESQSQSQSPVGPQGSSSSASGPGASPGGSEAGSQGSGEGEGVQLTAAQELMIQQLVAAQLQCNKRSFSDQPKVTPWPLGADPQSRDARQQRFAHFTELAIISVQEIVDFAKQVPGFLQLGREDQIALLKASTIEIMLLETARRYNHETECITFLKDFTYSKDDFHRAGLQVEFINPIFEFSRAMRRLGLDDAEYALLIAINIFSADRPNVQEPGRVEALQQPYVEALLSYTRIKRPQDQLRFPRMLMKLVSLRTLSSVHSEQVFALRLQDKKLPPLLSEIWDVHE
Protein Tat, sequence (P04608 whole entry): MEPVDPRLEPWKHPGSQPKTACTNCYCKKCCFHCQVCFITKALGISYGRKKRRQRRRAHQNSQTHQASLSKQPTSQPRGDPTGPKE

COc1ccc2c3c([nH]c2c1)[C@H](CO)N(C(C)=O)CC31CCN(S(=O)(=O)c2cccs2)CC1
AC50 [1]: 8.2 µM (active)

O=C(NCc1cccs1)c1cccc2c(-c3ccc(F)c(F)c3)coc12
IC50 [2]: > 67.5 µM (inactive) | EC50 [3]: > 67.5 µM (inactive)

COc1ccccc1NC(=O)CN(Cc1ccco1)C(=O)c1cccs1
IC50 [4]: > 100 µM (inconclusive)

CO[C@@H]1CN(C)C(=O)c2cc(NC(=O)Nc3ccc(C(F)(F)F)cc3)ccc2OC[C@H](C)NC[C@H]1C
AC50 [5]: 19.3 µM (active) | AC50 [6]: 2.28 µM (active) | AC50 [7]: 2.01 µM (active) | AC50 [8]: 1.61 µM (active) | AC50 [9]: 3.24 µM (active)

CC(CC1c2ccccc2CCc2ccccc21)CN(C)C (stereo unspecified) [BUTRIPTYLINE]
IC50 [10]: > 10 µM (inactive) | IC50 [11]: > 10 µM (inactive) | IC50 [12]: > 33.3 µM (inactive) | IC50 [13]: 3.64 µM (active)

CCCCCCOc1ccccc1C(N)=O [EXALAMIDE]
IC50 [14]: > 20 µM (inactive) | IC50 [15]: > 6.67 µM (inactive) | IC50 [16]: > 6.67 µM (inactive) | IC50 [17]: 9.36 µM (inactive) | IC50 [18]: > 20 µM (inactive) | IC50 [19]: 8.67 µM (inactive) | IC50 [20]: > 20 µM (inactive)

CCCNC(=O)N1[C@H](C#N)[C@H](c2ccc(-c3ccccc3F)cc2)[C@H]1CO
AC50 [21]: 0.0589 µM (active) | AC50 [22]: > 42 µM (inactive) | AC50 [6]: 0.00986 µM (active) | AC50 [7]: < 0.35 µM (active) | AC50 [8]: 14.9 µM (active) | AC50 [23]: 0.0988 µM (active) | AC50 [9]: 0.0114 µM (active)

Cc1cc2c(=Cc3ccc(N(C)C)cc3)c3ccccc3n2[n+]1C
EC50 [24]: > 53 µM (inactive) | CC50 [25]: 1.02 µM (active) | IC50 [26]: > 47.1 µM (inactive) | CC50 [27]: 18.5 µM (active) | IC50 [28]: 20.9 µM (active) | IC50 [29]: 7.36 µM (active) | IC50 [30]: 45.4 µM (active) | AC50 [31]: 17.6 µM (active) | IC50 [32]: 3.87 µM (active)
